The record followed here is ChEMBL document CHEMBL4699527, “Chemical Constituents from the Aerial Parts of Elsholtzia ciliata and Their Protective Activities on Glutamate-Induced HT22 Cell Death” (J Nat Prod, 2020).

Some results are limits rather than exact numbers.

The assay concerns HT-22. In words: Neuroprotective activity against glutamate-induced cell death in mouse HT-22 cells assessed as increase in cell viability after 24 hrs by EZ-Cytox assay. It is filed as functional, cell-based. The conditions noted are these: HT-22, 24 h.

`O=C1C[C@@H](c2ccc(O)c(O)c2)Oc2c1ccc(O)c2O`: the concentration giving a half-maximal response (EC50) worked out at 6.2 µM.

In the case of `O=C(O)c1ccc(O)cc1` [PARABEN], the EC50 was greater than 100 µM.

Regarding `COc1c(O)c(OC)c2c(=O)cc(-c3ccccc3)oc2c1OC`, the EC50 turned out to be 43.6 µM.

Consider `COc1ccc(-c2cc(=O)c3c(O)cc(O[C@@H]4O[C@H](CO[C@@H]5O[C@@H](C)[C@H](O)[C@@H](O)[C@H]5O)[C@@H](O)[C@H](O)[C@H]4O[C@@H]4O[C@H](COC(C)=O)[C@@H](O)[C@H](O)[C@H]4O)cc3o2)cc1`, for which the 50% effective concentration (EC50) is greater than 100 µM.

For `O=c1cc(-c2ccc(O)cc2)oc2cc(O)cc(O)c12` [APIGENIN], the EC50 was greater than 100 µM.

Turning to `O=C1/C(=C/c2ccc(O)c(O)c2)Oc2cc(O)ccc21` [SULFURETIN], the concentration for a half-maximal effect (EC50) came to 3.5 µM.

For `COc1ccc(/C=C/C(=O)c2ccc(O[C@@H]3O[C@H](CO)[C@@H](O)[C@H](O)[C@H]3O)cc2O)cc1O`, the EC50 is 63.4 µM.

As to `O=C(/C=C/c1ccc(O)c(O)c1)O[C@H]1CC[C@@H](O)[C@H]1O`, the EC50 was greater than 100 µM.

As for `COc1ccc(/C=C/C(=O)c2ccc(O[C@@H]3O[C@H](CO)[C@@H](O)[C@H](O)[C@H]3O)c(O)c2O)cc1O`, the EC50 amounted to 4.7 µM.

For `O=C(O)/C=C/c1ccc(O)cc1` [COUMARIC ACID], the EC50 was found to be 6.4 µM.

As to `O=C(/C=C/c1ccc(O)c(O)c1)O[C@H](Cc1ccc(O)c(O)c1)C(=O)O` [ROSMARINIC ACID], the half-maximal effective concentration (EC50) stood at 86 µM.

Regarding `COc1ccc(/C=C/C(=O)c2ccc(O)cc2O)cc1O`, the 50% effective concentration (EC50) worked out at 35.2 µM.

With `COc1ccc(-c2cc(=O)c3c(O)cc(O)cc3o2)cc1O` [DIOSMETIN], the EC50 worked out at 59.7 µM.

For the compound `CCOC(=O)/C=C/c1ccc(O)c(O)c1` [ETHYL CAFFEATE], the half-maximal effective concentration (EC50) amounted to 1.9 µM.

Regarding `O=C1/C=C/c2ccc(O)c(c2)O[C@@H]2O[C@H](COC(=O)/C=C/c3cc(O)c(O)cc3C1)[C@@H](O)[C@H](O)[C@H]2O`, the half-maximal effective concentration (EC50) is 8.3 µM.

In the case of `COc1cc2oc(-c3ccccc3)cc(=O)c2c(O)c1OC` [MOSLOFLAVONE], the EC50 stood at 23.4 µM.

As for `CC(C)=CCC/C(C)=C\CO[C@@H]1O[C@H](CO)[C@@H](O)[C@H](O)[C@H]1O`, the half-maximal effective concentration (EC50) is greater than 100 µM.

Regarding `O=C(O)/C=C\c1ccc(O)cc1`, the EC50 was greater than 100 µM.

For the compound `CC(=O)/C=C/c1ccc(O)c(O[C@@H]2O[C@H](COC(=O)/C=C/c3ccc(O)c(O)c3)[C@@H](O)[C@H](O)[C@H]2O)c1`, the 50% effective concentration (EC50) worked out at 62.2 µM.

For the compound `COc1ccc(-c2cc(=O)c3c(O)cc(O[C@@H]4O[C@H](CO[C@@H]5O[C@@H](C)[C@H](O)[C@@H](O)[C@H]5O)[C@@H](O)[C@H](O)[C@H]4O)cc3o2)cc1` [ACACIIN], the 50% effective concentration (EC50) amounted to 69.3 µM.

Consider `CC(=O)N[C@@H](CS)C(=O)O` [ACETYLCYSTEINE], for which the concentration giving a half-maximal response (EC50) is 700 µM.

For the compound `O=C(O)/C=C/C=C/c1ccc(O)c(O[C@@H]2O[C@H](COC(=O)/C=C/c3ccc(O)c(O)c3)[C@@H](O)[C@H](O)[C@H]2O)c1`, the EC50 amounted to 56.2 µM.

In the case of `COc1cc(C(=O)O)ccc1O` [VANILLIC ACID], the concentration giving a half-maximal response (EC50) came out at 27.8 µM.

On to `COc1ccc(-c2cc(=O)c3c(O)cc(O[C@@H]4O[C@H](CO[C@@H]5O[C@@H](C)[C@H](OC(C)=O)[C@@H](O)[C@H]5O)[C@@H](O)[C@H](O)[C@H]4O)cc3o2)cc1`, for which the concentration giving a half-maximal response (EC50) is greater than 100 µM.

Turning to `COc1cc(/C=C/C(=O)NC[C@H](O)c2ccc(O)cc2)ccc1O`, the EC50 was found to be 32.3 µM.

In the case of `O=c1cc(-c2ccc(O)cc2)oc2cc(O[C@@H]3O[C@H](CO)[C@@H](O)[C@H](O)[C@H]3O)cc(O)c12` [APIGETRIN], the concentration giving a half-maximal response (EC50) is greater than 100 µM.

Turning to `O=C(O)c1ccc(O)c(O)c1` [PROTOCATECHUIC ACID], the EC50 is greater than 100 µM.

Turning to `COc1ccc(-c2cc(=O)c3c(O)cc(O[C@@H]4O[C@H](CO[C@@H]5O[C@@H](C)[C@H](OC(C)=O)[C@@H](O)[C@H]5O)[C@@H](O)[C@H](O)[C@H]4O[C@@H]4O[C@H](COC(C)=O)[C@@H](O)[C@H](OC(C)=O)[C@H]4O)cc3o2)cc1`, the EC50 is greater than 100 µM.

Take `O=C(/C=C/c1ccc(O)cc1)c1ccc(O[C@@H]2O[C@H](CO)[C@@H](O)[C@H](O)[C@H]2O)cc1O`: the concentration for a half-maximal effect (EC50) came to 72 µM.

Take `CC(=O)/C=C/c1ccc(O)c(O)c1`: the EC50 is 1.5 µM.

Regarding `O=C(/C=C/c1ccc(O)c(O)c1)O[C@@H]1C[C@](O)(C(=O)O)C[C@@H](OC(=O)/C=C/c2ccc(O)c(O)c2)[C@H]1O`, the 50% effective concentration (EC50) was greater than 100 µM.

On to `COc1ccc(-c2cc(=O)c3c(O)cc(O[C@@H]4O[C@H](CO[C@@H]5O[C@@H](C)[C@H](OC(C)=O)[C@@H](O)[C@H]5O)[C@@H](O)[C@H](O)[C@H]4O[C@@H]4O[C@H](CO)[C@@H](O)[C@H](O)[C@H]4O)cc3o2)cc1`, for which the half-maximal effective concentration (EC50) came to 69.7 µM.

Turning to `OC[C@H]1O[C@@H](OCc2ccccc2)[C@H](O)[C@@H](O)[C@@H]1O`, the EC50 is greater than 100 µM.

On to `O=C(O)/C=C/c1ccc(O)c(O)c1` [CAFFEIC ACID], for which the EC50 is 77.1 µM.

Regarding `O=Cc1ccc(O)cc1` [4-HYDROXYBENZALDEHYDE], the concentration for a half-maximal effect (EC50) worked out at 33.2 µM.

For the compound `COc1ccc(-c2cc(=O)c3c(O)cc(O[C@@H]4O[C@H](CO[C@@H]5O[C@@H](C)[C@H](OC(C)=O)[C@@H](O)[C@H]5O)[C@@H](O)[C@H](O)[C@H]4O[C@@H]4O[C@H](COC(C)=O)[C@@H](O)[C@H](O)[C@H]4O)cc3o2)cc1`, the EC50 is greater than 100 µM.

For `COc1ccc(-c2cc(=O)c3c(O)cc(O[C@@H]4O[C@H](CO[C@@H]5O[C@@H](C)[C@H](O)[C@@H](OC(C)=O)[C@H]5O)[C@@H](O)[C@H](O)[C@H]4O[C@@H]4O[C@H](COC(C)=O)[C@@H](O)[C@H](O)[C@H]4O)cc3o2)cc1`, the EC50 was greater than 100 µM.
